Source: US20050065187A1, “Novel antimicrobial aryloxazolidinone compounds” (priority 2003, published 2005)
≈ marks a conversion by molar mass, not a printed value.

Tests used:
Assay in all cases: Antibacterial assay (Test A), microtitration MIC
[1] = test system: MC 30603; format: cell-based, M. catarrhalis; settings: Moraxella catarrhalis; Minimum Inhibitory Concentration, strain MC 30603; read-out: MC 30603 MIC
Procedure: (§1) Test A—Antibacterial Assays
(§2) The compounds of the present invention were tested against an assortment of Gram-negative and Gram-positive organisms using standard microtitration techniques (Cohen et. al., Antimicrob., 1985;28:766; Heifetz, et. al., Antimicrob., 1974;6:124).

[2] = test system: SAUR 9213; format: cell-based, S. aureus; settings: Staphylococcus aureus; Minimum Inhibitory Concentration, strain SAUR 9213; read-out: SAUR 9213 MIC
Procedure: as §1, §2

[3] = test system: SPNE 9912; format: cell-based, S. pneumoniae; settings: Streptococcus pneumoniae; Minimum Inhibitory Concentration, strain SPNE 9912; read-out: SPNE 9912 MIC
Procedure: as §1, §2

[4] = test system: HINF 30063; format: cell-based, H. influenza; settings: Minimum Inhibitory Concentration, strain HINF 30063
Procedure: as §1, §2

Compound | MIC [1] | MIC [2] | MIC [3] | MIC [4]
CC(=O)NC[C@H]1CN(c2ccc(C3CCC(=NO)CC3)c(F)c2)C(=O)O1 (stereo partly shown) [Example 21, N-{3-[3-Fluoro-4-(4-hydroxyimino-cyclohexyl)-phenyl]-2-oxo-oxazolidin-5-ylmethyl}-acetamide] | 8 µg/mL (≈ 22 µM) | 1 µg/mL (≈ 2.75 µM) | 0.5 µg/mL (≈ 1.38 µM) | 16 µg/mL (≈ 44 µM)
O=C1O[C@@H](CNC(=S)C(F)F)CN1c1ccc(C2CCC(O)[C@@H](O)C2)cc1 (stereo in doubt) [Example 15, N-{3-[4-(3,4-Dihydroxy-cyclohexyl)-phenyl]-2-oxo-oxazolidin-5-ylmethyl}-2,2-difluoro-thioacetamide] | 8 µg/mL (≈ 20 µM) | 4 µg/mL (≈ 9.99 µM) | 1 µg/mL (≈ 2.5 µM) | 16 µg/mL (≈ 40 µM)
CCC(=O)NC[C@H]1CN(c2ccc(C3CCC(O)CC3)c(F)c2)C(=O)O1 (stereo in doubt) [Example 17, N-{3-[3-Fluoro-4-(4-hydroxy-cyclohexyl)-phenyl]-2-oxo-oxazolidin-5-ylmethyl}-propionamide] | 4 µg/mL (≈ 11 µM) | 2 µg/mL (≈ 5.49 µM) | 1 µg/mL (≈ 2.74 µM) | 4 µg/mL (≈ 11 µM)
O=C1O[C@@H](Cn2ccnn2)CN1c1ccc(N2CC[C@@H](O)[C@@H](O)C2)c(F)c1 (stereo in doubt) [Example 5, 3-[4-(3,4-Dihydroxy-piperidin-1-yl)-3-fluoro-phenyl]-5-[1,2,3]triazol-1-ylmethyl-oxazolidin-2-one] | 16 µg/mL (≈ 42.4 µM) | 4 µg/mL (≈ 10.6 µM) | 1 µg/mL (≈ 2.65 µM) | 32 µg/mL (≈ 84.8 µM)
O=C1O[C@@H](CNC(=S)C(F)F)CN1c1ccc(C2CCC(O)C(F)C2)c(F)c1 (single isomer, unassigned) [Example 28, 2,2-Difluoro-N-{3-[3-fluoro-4-(3-fluoro-4-hydroxy-cyclohexyl)-phenyl]-2-oxo-oxazolidin-5-ylmethyl}-thioacetamide] | 2 µg/mL (≈ 4.76 µM) | 1 µg/mL (≈ 2.38 µM) | 0.5 µg/mL (≈ 1.19 µM) | 32 µg/mL (≈ 76.1 µM)
NC(=O)[C@H]1CN(c2ccc(C3CCC(=O)CC3)c(F)c2)C(=O)O1 [Example 24, 3-[3-Fluoro-4-(4-oxo-cyclohexyl)-phenyl]-2-oxo-oxazolidine-5-carboxylic acid amide] | 32 µg/mL (≈ 99.9 µM) | 1 µg/mL (≈ 3.12 µM) | 2 µg/mL (≈ 6.24 µM) | 32 µg/mL (≈ 99.9 µM)
CC(=O)NC[C@H]1CN(c2ccc(C3CCC(O)CC3)c(F)c2)C(=O)O1 (stereo in doubt) [Example 16, N-{3-[3-Fluoro-4-(4-hydroxy-cyclohexyl)-phenyl]-2-oxo-oxazolidin-5-ylmethyl}-acetamide] | 4 µg/mL (≈ 11.4 µM) | 2 µg/mL (≈ 5.71 µM) | 1 µg/mL (≈ 2.85 µM) | 8 µg/mL (≈ 22.8 µM)
O=C1O[C@@H](CNC(=S)C(F)F)CN1c1ccc(C2CCC(O)[C@@H](O)C2)c(F)c1 (stereo in doubt) [Example 11, N-{3-[4-(3,4-Dihydroxy-cyclohexyl)-3-fluoro-phenyl]-2-oxo-oxazolidin-5-ylmethyl}-2,2-difluoro-thioacetamide] | 4 µg/mL (≈ 9.56 µM) | 1 µg/mL (≈ 2.39 µM) | 0.5 µg/mL (≈ 1.19 µM) | 8 µg/mL (≈ 19.1 µM)
O=C(NC[C@H]1CN(c2ccc(C3CCC(O)[C@@H](O)C3)cc2)C(=O)O1)C(Cl)Cl (stereo in doubt) [Example 13, 2,2-Dichloro-N-{3-[4-(3,4-dihydroxy-cyclohexyl)-phenyl]-2-oxo-oxazolidin-5-ylmethyl}-acetamide] | 8 µg/mL (≈ 19.2 µM) | 8 µg/mL (≈ 19.2 µM) | 1 µg/mL (≈ 2.4 µM) | 8 µg/mL (≈ 19.2 µM)
O=C(NC[C@H]1CN(c2ccc(C3CCC(O)[C@@H](O)C3)c(F)c2)C(=O)O1)C(Cl)Cl (stereo in doubt) [Example 9, 2,2-Dichloro-N-{3-[4-(3,4-dihydroxy-cyclohexyl)-3-fluoro-phenyl]-2-oxo-oxazolidin-5-ylmethyl}-acetamide] | 4 µg/mL (≈ 9.19 µM) | 4 µg/mL (≈ 9.19 µM) | 1 µg/mL (≈ 2.3 µM) | 4 µg/mL (≈ 9.19 µM)
O=C(NC[C@H]1CN(c2ccc(C3CCC(O)CC3)c(F)c2)C(=O)O1)C(F)F (stereo in doubt) [Example 18, 2,2-Difluoro-N-{3-[3-fluoro-4-(4-hydroxy-cyclohexyl)-phenyl]-2-oxo-oxazolidin-5-ylmethyl}-acetamide] | 4 µg/mL (≈ 10.4 µM) | 2 µg/mL (≈ 5.18 µM) | 0.5 µg/mL (≈ 1.29 µM) | 8 µg/mL (≈ 20.7 µM)
CCC(=O)NC[C@H]1CN(c2ccc(C3CCC(O)C(F)C3)c(F)c2)C(=O)O1 (single isomer, unassigned) [Example 27, N-{3-[3-Fluoro-4-(3-fluoro-4-hydroxy-cyclohexyl)-phenyl]-2-oxo-oxazolidin-5-ylmethyl}-propionamide] | 2 µg/mL (≈ 5.23 µM) | 2 µg/mL (≈ 5.23 µM) | 0.25 µg/mL (≈ 0.654 µM) | 8 µg/mL (≈ 20.9 µM)
CC(=O)NC[C@H]1CN(c2ccc(C3CCC(=O)CC3)c(F)c2)C(=O)O1 [Example 20, N-{3-[3-Fluoro-4-(4-oxo-cyclohexyl)-phenyl]-2-oxo-oxazolidin-5-ylmethyl}-acetamide] | 8 µg/mL (≈ 23 µM) | 2 µg/mL (≈ 5.74 µM) | 0.5 µg/mL (≈ 1.44 µM) | 16 µg/mL (≈ 45.9 µM)
